Results taken from patent publication US20070196491A1, “DRUG DELIVERY SYSTEMS COMPRISING WEAKLY BASIC DRUGS AND ORGANIC ACIDS” (EURAND, INC., priority 2006, published 2007).
≈ marks a conversion by molar mass, not a printed value. Structures can show the parent of a compound that is named as a salt. Where two headings read alike, the source gives them in different places.

Key:
[1] = cited from earlier work
[2] = physchem
[3] = intestinal regions; cited from earlier work
[4] = Solubilities of weakly basic drugs in organic acid buffers
[5] = pH 2.14

For COc1ccccc1OCCNCC(O)COc1cccc2[nH]c3ccccc3c12 (racemic) [Carvedilol], the aqueous solubility ([1]; above a pH of 9) is listed as less than 1 µg/mL, the aqueous solubility ([1]; at a pH 5) is listed as “about 100 μg/mL” and the aqueous solubility ([1]; at a pH of 7) is listed as “about 23 μg/mL”. The solubility ([2]; pH 2.12, aqueous buffer) was 2510 µg/mL (≈ 6170 µM), the solubility ([2]; pH 2.28, aqueous buffer) was 1360 µg/mL (≈ 3350 µM) and the solubility ([2]; pH 2.54, aqueous buffer) was 731 µg/mL (≈ 1800 µM). It also gave a solubility ([2]; pH 2.94, aqueous buffer) of 508 µg/mL (≈ 1250 µM), a solubility ([2]; pH 3.64, aqueous buffer) of 121 µg/mL (≈ 298 µM) and a solubility ([2]; pH 5.46, aqueous buffer) of 105 µg/mL (≈ 258 µM). For the same compound, the solubility ([2]; pH 5.9, aqueous buffer) was 28 µg/mL (≈ 68.9 µM) and the “in vivo absorption within the intestine, decreasing order” value [3] was “jejunum>ileum>colon”.
With O=C1CN=C(c2ccccc2Cl)c2cc([N+](=O)[O-])ccc2N1 [Clonazepam] the “Solubility (mg/mL) of Clonazepam in Fumaric Acid” value ([4]; pH of buffer 4.8) was 0.0095 mg/mL.
In the case of OCCN(CCO)c1nc(N2CCCCC2)c2nc(N(CCO)CCO)nc(N3CCCCC3)c2n1 [Dipyridamole], the “solubility (in words)” value ([1]; in dilute acids) is given as “soluble” and the “solubility (in words)” value ([1]; in water, neutral and alkaline buffers) is given as “practically insoluble”.
In the case of Cc1nccn1CC1CCc2c(c3ccccc3n2C)C1=O (stereo not shown) [Ondansetron Hydrochloride, Ondansetron hydrochloride], the “solubility (in words)” value ([1]; at a pH of 6.8) is listed as “practically insoluble”, the “solubility (in words)” value ([1]; at acidic pHs) is listed as “fairly soluble” and the “Solubility of Ondansetron Hydrochloride” value ([4]; fumaric acid 0.0025 mg/mL, start pH 4.15, end pH 4.33) is listed as 26100 µg/mL. For the same compound, the “Solubility of Ondansetron Hydrochloride” value ([4]; fumaric acid 0.01 mg/mL, start pH 3.64, end pH 4.05) was 26100 µg/mL, the “Solubility of Ondansetron Hydrochloride” value ([4]; fumaric acid 0.25 mg/mL, start pH 2.79, end pH 2.75) was 26200 µg/mL and the “Solubility of Ondansetron Hydrochloride” value ([4]; fumaric acid 1 mg/mL, start pH 2.48, end pH 2.40) was 26100 µg/mL. The “Solubility of Ondansetron Hydrochloride” value ([4]; fumaric acid 5 mg/mL, start pH 2.13, end pH 2.01) was 26900 µg/mL and the “Solubility of Ondansetron Hydrochloride” value [5] was 27000 µg/mL.
